Results taken from patent US20130064794A1, “Substituted Carbonyloxymethylphosphoramidate Compounds and Pharmaceutical Compositions for the Treatment of Viral Infections” (IDENIX PHARMACEUTICALS, INC., priority 2011, published 2013).

Assays:
[1] = Stability in human intestinal microsomes (HIM); assay type: in vitro ADME; settings: 10 μM, 1.0 mg/mL protein, NADPH, 60 min
Experimental: Stability of Compound 1 and its diastereomer were determined in subcellular fractions (microsomes and S9) of human liver and intestine in duplicate for each matrix. Pooled liver and intestinal microsomal, intestinal and liver S9 proteins (1.0 mg/mL), suspended in incubation buffer (100 mM potassium phosphate, pH 7.4, 5 mM MgCl2, and 0.1 mM EDTA), were preincubated for 5 min at 37° C. with 10 μM of a test compound from a 10 mM stock solution in DMSO (final DMSO concentration was 0.1%); the reaction was initiated by the addition of NADPH (3 mM final concentration). At specific times (0 and 60 min), 0.1 mL samples were taken and the reaction terminated by the addition of 4 volumes of stop solution (acetonitrile with 500 ng/mL carbutamide as an internal standard). The samples were vortexed for 30 sec and then centrifuged at 16,000 g for 10 min. 100 μL of supernatants were transferred to 96 deep-well plates preloaded with 100 μL distilled water and analyzed after mixing by LC-MS/MS. The MS peak area ratio of the test compound versus the internal standard was calculated and percent unchanged test compound over 60 minutes was calculated using this ratio.

Huh-7 cells = assay: Release of active metabolite in Huh-7 cells; assay type: in vitro ADME; settings: intracellular triphosphate, 10 μM test compound
Experimental: Huh-7 cells were plated in 1 mL culture medium (DMEM, containing glucose, L-glutamine and sodium pyruvate, 10% FBS, 100 IU/mL penicillin, 100 μg/mL streptomycin, 2 mM GlutaMAX, 1% MEM non-essential amino acids) at the concentration 0.8, 0.4 and 0.2 million cells per well on 6 well plates for 24, 48 and 72 hr treatment, respectively. Plated cells were incubated overnight at 37° C. in an incubator.
The following morning the test compound was diluted to 20 μM from a stock solution in DMSO in fresh culture medium pre-warmed to 37° C. and 1 mL of the solution/well was added to cells. A final medium volume per well was 2.0 mL, the test compound concentration in well was 10 μM and final DMSO concentration was 0.1%.
After 24, 48 or 72 hr, the medium was carefully removed and cell monolayers were washed twice with 2 mL ice-cold PBS per well. Following the last wash, all PBS was carefully removed and 1.0 mL of extraction solution (ice-cold 70% methanol) added. The plate was tightly covered with Parafilm, plastic plate cover and Parafilm again and an intracellular content was extracted at −20° C. for 24 hr.
After 24 hr extracts were transferred into polypropylene microfuge tubes and dry on a refrigerated centrivap concentrator. Dry residues were reconstituted in 250 μL of HPLC-grade water and centrifuged at 16,000×g for 10 min. […]

[2] = Cytotoxicity evaluation, CellTiter-Blue Cell Viability Assay; assay type: cell-based; settings: human, Zluc cells (Huh-7-derived cell line), read-out: HCV Replicon CC50
Experimental: (§1) For cytotoxicity evaluation, Zluc cells were treated with compound as described above, and cell viability was monitored using the CellTiter-Blue Cell Viability Assay (Promega) by adding 20 μL of the assay solution to each well. The plates were then incubated at 37° C./5% CO2 for at least 3 hours.

[3] = Plasma and liver pharmacokinetics following a single oral dose in CD-1 mice; assay type: in vivo; settings: single oral dose in PEG 200, value at 1 μmol/kg; for Ms 2′-F, 2′-MeGTP AUC: mouse liver; for Ms Plasma 2′-F, 2′-MeG AUC / Ms Plasma 2′-F, 2′-MeG Cmax: mouse plasma
Experimental: A single oral dose of Compound 1 at 25 mg/kg in PEG 200 (dose volume 5 mL/kg) was administered to nine CD-1 male mice. Five untreated animals were used for the collection of control plasma and liver. Terminal plasma and liver samples were collected from three animals per time point at 4, 12 and 24 hours post dose. Liver specimens were collected from all animals immediately after the incision. Freezing forceps stored in liquid nitrogen were used to freeze the liver before excision.
Plasma samples were analyzed for 2′-methylguanosine (2′-MeG) by LC-MS/MS. The internal standard (1S) was 2′-MeG-D3. For protein precipitation and extraction, each plasma sample (50 μL) was treated with 500 μL of 0.2% formic acid in acetonitrile and 20 μL of the internal standard working solution. After vortexing and centrifugation, 500 μL of the sample extracts were transferred to a new plate, dried under N2 at ˜28° C. and reconstituted with 75 μL of 0.2% FA in water. The extracts were chromatographed on an Aquasil C18 column using a gradient system of 0.2% formic acid in water and acetonitrile. The analytes were detected and quantified by tandem mass spectrometry in positive ion mode on an MDS Sciex API5000 equipped with a Turbo Ionspray® interface. The calibration range was 0.500 (LLOQ) to 200 ng/mL in mouse plasma. The corresponding range for molar units is 1.68 to 673 pmol/mL.
Liver samples were analyzed for the active species 2′-methylguanosine triphosphate (2′-MeGTP) by LC-MS/MS. 2′-F, 2′-MeGTP levels were assayed by homogenizing (on ice) a known weight of mouse liver with 4× volume of 0.95 M trichloroacetic acid (TCA). Internal standard solution was added to the homogenate followed by neutralization with 20% ammonium hydroxide solution and addition of 500 μL 1% formic acid. The tissue samples were extracted by weak anion exchange solid phase extraction (SPE). Post extraction, the eluates were evaporated under nitrogen, followed by reconstitution before injection onto the LC-MS/MS system. The samples were chromatographed on a Luna NH2 column using a gradient system of ammonium acetate (1 mM to 20 mM and pH 8.0 to pH 10.0) in water and acetonitrile (70:30). The analyte was detected and quantified by tandem mass spectrometry in positive ion mode on an API4000 equipped with a Turbo Ionspray® interface. The calibration range was 10 to 10000 pmol/mL in mouse liver homogenate (50 to 50000 pmol/g of mouse liver).

[4] = test system: Zluc cells (Huh-7-derived cell line); assay: Cytotoxicity evaluation, CellTiter-Blue Cell Viability Assay; assay type: cell-based; settings: read-out: HCV Replicon CC50
Experimental: as §1

Row | Structure (SMILES) | Percent Remaining, HIM (1 hr) [1] | Huh-7 TP Cmax (Huh-7 cells) | CC50 [2] | Ms 2′-F, 2′-MeGTP AUC [3] | Ms Plasma 2′-F, 2′-MeG AUC [3] | Ms Plasma 2′-F, 2′-MeG Cmax [3] | CC50 [4]
1 | CCOC(=O)OC(C)OP(=O)(N[C@@H](C)C(=O)OC(C)C)OC[C@H]1O[C@@H](n2cnc3c(OC)nc(N)nc32)[C@](C)(F)[C@@H]1O (single isomer, unassigned) [Compound 14] | 41% | 410 pmol/mill cells | > 50 µM | 1900 pmol · hr/g at 1 μmol/kg | 150 pmol · hr/mL at 1 μmol/kg | 14 pmol/mL at 1 μmol/kg | 
2 | CCOC(=O)OC(C)OP(=O)(N[C@@H](C)C(=O)OC(C)C)OC[C@H]1O[C@@H](n2cnc3c(OC)nc(N)nc32)[C@](C)(F)[C@@H]1O (single isomer, unassigned) [Compound 15] | 54% | 198 pmol/mill cells |  | 900 pmol · hr/g at 1 μmol/kg | 130 pmol · hr/mL at 1 μmol/kg | 16 pmol/mL at 1 μmol/kg | > 50 µM
